In patent US8987502B2, “Oleanolic acid amidate derivatives, preparation methods and uses thereof” (Hangzhou Bensheng Pharmaceutical Co., Ltd., priority 2011, dated 2015):
In brackets after ≈: the same amount, converted by molar mass.

What was measured:
Becap37 = assay: MTT solid tumor cell proliferation inhibition, Becap37; format: cell-based; details: Homo sapiens; for inhibition at 16 µg/mL: Becap37, 16 μg/mL compound, 72 h, read-out: IR (inhibition rate); for IC50: Becap37, 72 h, MTT
Experimental: (§1) Human solid tumor cell lines: Hep-2 (laryngeal carcinoma), A549 (human lung cancer), CaES-17 (esophageal cancer cell), PC-3 (prostate cancer), CNE (nasopharyngeal carcinoma cell), and SK-OV-3 (ovarian cancer cell), all of which are purchased from China Center For Type Culture Collection; RKO (human colon adenocarcinoma cell), MGC 803 (human gastric cancer cell), MG63 (osteosarcoma) and U87 MG (malignant glioma cell), all of which are purchased from Fuxiang Bio-tech Co. Ltd., Shanghai, China; PANC-1 (pancreatic cancer), Hep G2 (human liver cancer cell), Becap37 (human breast cancer cell), and Hela (human cervical cancer cell), all of which are donated by Cancer Research Institute of Zhejiang University, China.
(§2) Obtaining 4000 well-growing human solid tumor cells and inoculating them into wells of a 96-well cell culture plate. The culture medium is DMEM High Glucose cell culture medium containing 10% fetal bovine serum. The plate is placed in a carbon dioxide cell incubator (5% CO2) at 37° C. for 24 hours for incubation. After being added with the amidated oleanolic acid derivatives of different concentrations and mixed uniformly, the plate is placed in a carbon dioxide cell incubator (5% CO2) at 37° C. for 72 hours for incubation. Then the relative number of the living cells is determined by the MTT method. In this experiment, the cell proliferation inhibition rate in control group (not treated with any compound) is set as 0%.

Jurkat = assay: MTT leukemia cell proliferation inhibition, Jurkat; format: cell-based; details: Homo sapiens, 72 h; for inhibition at 16 µg/mL: 16 μg/mL compound, read-out: IR (inhibition rate); for IC50: MTT
Excerpt: (§3) Leukemia cell lines: leukemia cell lines: K562/adr (drug-resistant, chronic myeloid leukemia, CML), NB4 (acute promyelocytic leukemia, AML), Kasumi-1 (acute myeloid leukemia M2 type, AML-M2), Jurkat (acute lymphoblastic leukemia, ALL), all of which are donated by Cancer Research Institute of Zhejiang University, China; and H9 (acute lymphoblastic leukemia, ALL), which is purchased from China Center for Type Culture Collection (CCTCC).
(§4) Reagents: The standard sample of oleanolic acid (OA) is purchased from Hua Kang Pharmaceutical Raw Material Factory, Shifang City, Sichuan, China; and the amidated oleanolic acid derivatives are prepared according to the present invention.
(§5) Obtaining 6000 well-growing leukemia cells and inoculating them into wells of a 96-well cell culture plate. The culture medium is the 1640 cell culture medium containing 10% fetal bovine serum. After adding the amidated oleanolic acid derivatives of different concentrations and mixing uniformly, placing the plate in a carbon dioxide cell incubator (5% CO2) at 37° C. and incubated for 72 hours. Then the relative number of viable cells is determined by the MTT method. In this experiment, the cell proliferation inhibition rate in control group (not treated with any compound) is set as 0%.

RPMI8226 = assay: MTT multiple myeloma cell proliferation inhibition, RPMI8226; format: cell-based; details: Homo sapiens, RPMI-8226; for inhibition at 16 µg/mL: RPMI8226, 16 μg/mL compound, 72 h, read-out: IR (inhibition rate); for IC50: RPMI8226, 72 h, MTT
Experimental: Multiple myeloma cell lines: RPMI8226 (multiple myeloma), purchased from Fuxiang Bio-tech Co. Ltd., Shanghai, China.
as §5

MGC803 = assay: MTT solid tumor cell proliferation inhibition, MGC803; format: cell-based, human; details: Homo sapiens, MGC-803; for inhibition at 16 µg/mL: MGC803, 16 μg/mL compound, 72 h, read-out: IR (inhibition rate); for IC50: MGC803, 72 h, MTT
Experimental: as §1, §2

PC-3 = assay: MTT solid tumor cell proliferation inhibition, PC-3; format: cell-based, human; details: Homo sapiens; for inhibition at 16 µg/mL: PC-3, 16 μg/mL compound, 72 h, read-out: IR (inhibition rate); for IC50: PC-3, 72 h, MTT
Experimental: as §1, §2

Hep G2 = assay: MTT solid tumor cell proliferation inhibition, Hep G2; format: cell-based; details: Homo sapiens, HepG2; for inhibition at 16 µg/mL: Hep G2, 16 μg/mL compound, 72 h, read-out: IR (inhibition rate); for IC50: Hep G2, 72 h, MTT
Experimental: as §1, §2

H9 = assay: MTT leukemia cell proliferation inhibition, H9; format: cell-based, human; details: Homo sapiens; for inhibition at 16 µg/mL: H9, 16 μg/mL compound, 72 h, read-out: IR (inhibition rate); for IC50: H9, 72 h, MTT
Excerpt: as §3, §4, §5

Hela = assay: MTT solid tumor cell proliferation inhibition, Hela; format: cell-based, human; details: Homo sapiens, Hela, 72 h; for inhibition at 16 µg/mL: 16 μg/mL compound, read-out: IR (inhibition rate); for IC50: MTT
Experimental: as §1, §2

CaES-17 = assay: MTT solid tumor cell proliferation inhibition, CaES-17; format: cell-based, human; details: Homo sapiens, CaEs17; for inhibition at 16 µg/mL: CaES-17, 16 μg/mL compound, 72 h, read-out: IR (inhibition rate); for IC50: CaES-17, 72 h, MTT
Experimental: as §1, §2

SK-OV-3 = assay: MTT solid tumor cell proliferation inhibition, SK-OV-3; format: cell-based, human; details: Homo sapiens; for inhibition at 16 µg/mL: SK-OV-3, 16 μg/mL compound, 72 h, read-out: IR (inhibition rate); for IC50: SK-OV-3, 72 h, MTT
Experimental: as §1, §2

U87 MG = assay: MTT solid tumor cell proliferation inhibition, U87 MG; format: cell-based, human; details: Homo sapiens, U-87 MG, U87 MG, 72 h; for inhibition at 16 µg/mL: 16 μg/mL compound, read-out: IR (inhibition rate); for IC50: MTT
Experimental: as §1, §2

Kasumi-1 = assay: MTT leukemia cell proliferation inhibition, Kasumi-1; format: cell-based; details: Homo sapiens; for inhibition at 16 µg/mL: Kasumi-1, 16 μg/mL compound, 72 h, read-out: IR (inhibition rate); for IC50: Kasumi-1, 72 h, MTT
Excerpt: as §3, §4, §5

A549 = assay: MTT solid tumor cell proliferation inhibition, A549; format: cell-based, human; details: Homo sapiens; for inhibition at 16 µg/mL: A549, 16 μg/mL compound, 72 h, read-out: IR (inhibition rate); for IC50: A549, 72 h, MTT
Experimental: as §1, §2

Hep-2 = assay: MTT solid tumor cell proliferation inhibition, Hep-2; format: cell-based, human; details: Homo sapiens; for inhibition at 16 µg/mL: Hep-2, 16 μg/mL compound, 72 h, read-out: IR (inhibition rate); for IC50: Hep-2, 72 h, MTT
Experimental: as §1, §2

RKO = assay: MTT solid tumor cell proliferation inhibition, RKO; format: cell-based; details: Homo sapiens, 72 h; for inhibition at 16 µg/mL: 16 μg/mL compound, read-out: IR (inhibition rate); for IC50: MTT
Experimental: as §1, §2

PANC-1 = assay: MTT solid tumor cell proliferation inhibition, PANC-1; format: cell-based, human; details: Homo sapiens; for inhibition at 16 µg/mL: PANC-1, 16 μg/mL compound, 72 h, read-out: IR (inhibition rate); for IC50: PANC-1, 72 h, MTT
Experimental: as §1, §2

MG 63 = assay: MTT solid tumor cell proliferation inhibition, MG 63; format: cell-based, human; details: for IC50: Homo sapiens, MG 63, 72 h, MTT; for IR (inhibition rate): MG 63, 16 μg/mL compound, 72 h
Experimental: as §1, §2

NB4 = assay: MTT leukemia cell proliferation inhibition, NB4; format: cell-based; details: Homo sapiens, NB-4; for inhibition at 16 µg/mL: NB4, 16 μg/mL compound, 72 h, read-out: IR (inhibition rate); for IC50: NB4, 72 h, MTT
Excerpt: as §3, §4, §5

K562/adr = assay: MTT leukemia cell proliferation inhibition, K562/adr; format: cell-based; details: Homo sapiens, 72 h; for inhibition at 16 µg/mL: 16 μg/mL compound, read-out: IR (inhibition rate); for IC50: MTT
Excerpt: as §3, §4, §5

CNE = assay: MTT solid tumor cell proliferation inhibition, CNE; format: cell-based, human; details: Homo sapiens, CNE, 72 h; for inhibition at 16 µg/mL: 16 μg/mL compound, read-out: IR (inhibition rate); for IC50: MTT
Experimental: as §1, §2

SMILES: COc1cccc(C(=O)N[C@]23CCC(C)(C)C[C@H]2C2=CC[C@@H]4[C@@]5(C)CC[C@H](O)C(C)(C)[C@@H]5CC[C@@]4(C)[C@]2(C)CC3)c1 [BS-OA-103]
- inhibition at 16 µg/mL (Becap37): 4.6%
- IC50 (Becap37): > 16 µg/mL
- inhibition at 16 µg/mL (Jurkat): -2.5%
- IC50 (Jurkat): > 16 µg/mL
- inhibition at 16 µg/mL (RPMI8226): 90.2%
- IC50 (RPMI8226): 9.63 µg/mL (≈ 17.1 µM)
- inhibition at 16 µg/mL (MGC803): 7%
- IC50 (MGC803): > 16 µg/mL
- inhibition at 16 µg/mL (PC-3): 24.5%
- IC50 (PC-3): > 16 µg/mL
- inhibition at 16 µg/mL (Hep G2): 8%
- IC50 (Hep G2): > 16 µg/mL
- inhibition at 16 µg/mL (H9): 34.1%
- IC50 (H9): > 16 µg/mL
- inhibition at 16 µg/mL (Hela): 38.4%
- IC50 (Hela): > 16 µg/mL
- inhibition at 16 µg/mL (CaES-17): -5.9%
- IC50 (CaES-17): > 16 µg/mL
- inhibition at 16 µg/mL (SK-OV-3): 17.2%
- IC50 (SK-OV-3): > 16 µg/mL
- inhibition at 16 µg/mL (U87 MG): 3.7%
- IC50 (U87 MG): > 16 µg/mL
- inhibition at 16 µg/mL (Kasumi-1): 19.9%
- IC50 (Kasumi-1): > 16 µg/mL
- inhibition at 16 µg/mL (A549): 29.8%
- IC50 (A549): > 16 µg/mL
- inhibition at 16 µg/mL (Hep-2): 10.6%
- IC50 (Hep-2): > 16 µg/mL
- inhibition at 16 µg/mL (RKO): -11.7%
- IC50 (RKO): > 16 µg/mL
- inhibition at 16 µg/mL (PANC-1): 33.7%
- IC50 (PANC-1): > 16 µg/mL
- IC50 (MG 63): > 16 µg/mL
- IR (inhibition rate) (MG 63): −25.4%
- inhibition at 16 µg/mL (NB4): 48.5%
- IC50 (NB4): 16 µg/mL (≈ 28.5 µM)
- inhibition at 16 µg/mL (K562/adr): 87.3%
- IC50 (K562/adr): 5.7 µg/mL (≈ 10.1 µM)
- inhibition at 16 µg/mL (CNE): 26%
- IC50 (CNE): > 16 µg/mL

SMILES: CC1(C)CC[C@]2(C(=O)O)CC[C@]3(C)C(=CC[C@@H]4[C@@]5(C)CC[C@H](O)C(C)(C)[C@@H]5CC[C@]43C)[C@@H]2C1 [OA, Oleanolic acid]
- inhibition at 16 µg/mL (Becap37): 23.4%
- IC50 (Becap37): > 16 µg/mL
- inhibition at 16 µg/mL (Jurkat): 9.4%
- IC50 (Jurkat): > 16 µg/mL
- inhibition at 16 µg/mL (RPMI8226): 2.2%
- IC50 (RPMI8226): > 16 µg/mL
- inhibition at 16 µg/mL (MGC803): 19.7%
- IC50 (MGC803): > 16 µg/mL
- inhibition at 16 µg/mL (PC-3): 29.1%
- IC50 (PC-3): > 16 µg/mL
- inhibition at 16 µg/mL (Hep G2): -18.5%
- IC50 (Hep G2): > 16 µg/mL
- inhibition at 16 µg/mL (H9): 22.8%
- IC50 (H9): > 16 µg/mL
- inhibition at 16 µg/mL (Hela): 22.9%
- IC50 (Hela): > 16 µg/mL
- inhibition at 16 µg/mL (CaES-17): 27.4%
- IC50 (CaES-17): > 16 µg/mL
- inhibition at 16 µg/mL (SK-OV-3): 8.3%
- IC50 (SK-OV-3): > 16 µg/mL
- inhibition at 16 µg/mL (U87 MG): 21.8%
- IC50 (U87 MG): > 16 µg/mL
- inhibition at 16 µg/mL (Kasumi-1): 17.2%
- IC50 (Kasumi-1): > 16 µg/mL
- inhibition at 16 µg/mL (A549): 5%
- IC50 (A549): > 16 µg/mL
- inhibition at 16 µg/mL (Hep-2): 9.8%
- IC50 (Hep-2): > 16 µg/mL
- inhibition at 16 µg/mL (RKO): 14.3%
- IC50 (RKO): > 16 µg/mL
- inhibition at 16 µg/mL (PANC-1): 8.5%
- IC50 (PANC-1): > 16 µg/mL
- IC50 (MG 63): > 16 µg/mL
- IR (inhibition rate) (MG 63): 29.2%
- inhibition at 16 µg/mL (NB4): 17.2%
- IC50 (NB4): > 16 µg/mL
- inhibition at 16 µg/mL (K562/adr): 26.5%
- IC50 (K562/adr): > 16 µg/mL
- inhibition at 16 µg/mL (CNE): 33.9%
- IC50 (CNE): > 16 µg/mL
